Experimental data taken from the NIST ThermoML archive (doi:10.1016/j.jct.2016.10.006).
± gives the expanded uncertainty stated by the source.

Assays:
[1] = Crystal; DTA
[2] = Molar enthalpy of transition or fusion; settings: Crystal; DSC

- Normal melting temperature [1]: 148.20 ± 1.1 °C
- Molar enthalpy of transition or fusion [2]: 5.36 ± 0.222 kcal/mol
Structure (SMILES): Cn1cnc([N+](=O)[O-])c1Cl [5-chloro-1-methyl-4-nitroimidazole]
